Laboratory results from publication PMC13185819, “De Novo Multi‐Mechanism Antimicrobial Peptide Design via Multimodal Deep Learning” (Advanced Science, 2026).
In brackets after ≈: the same amount, converted by molar mass. Residues, ends and D or L forms follow the SMILES beside them.

Key:
[1] = test system: 25 strains of ESKAPE MDROs; format: cell-based; conditions: lowest value over gram-negative strains
Summary of the method: (§1)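 Peptide antimicrobial activity was tested by CLSI broth microdilution. Colonies from overnight 37°C NB agar were suspended in saline to McFarland 0.5 (10^8 CFU/mL) and diluted 100-fold. The resulting 1 × 10^6 CFU/mL inoculum was mixed 1:1 with twofold serial peptide dilutions in Mueller–Hinton Broth. Three independent replicates were run.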

[2] = test system: intact or abraded skin of mice; assay: Mouse skin tolerance test; format: in vivo, C57BL/6J mice; conditions: for skin irritation or pathology at 72 h post-treatment: shaved intact and abraded skin, 10 µL of 150 mg/mL
Experimental: For the skin local safety study, the intact or abraded skin of the mice was treated once with antimicrobial peptides QLX‐3DV‐1, QLX‐3DV‐2, or water. In brief, ten‐week‐old female C57BL/6J mice (n = 8 for each group) were anesthetized using isoflurane and administered buprenorphine as an analgesic at 0.1 mg/kg intraperitoneally. After removing the back hair of the mice, the skin on the back of the mice in the scratch group was sanded with 60‐grit sandpaper until the skin oozed blood. The intact skin group received no additional treatment except shaving. 10 µL QLX‐3DV‐1 and QLX‐3DV‐2 (150 mg/mL) or water was applied uniformly over the intact or abraded skin to assess the acute dermal toxicity. Groups without any addition served as untreated controls. Weight changes were recorded over 72 h. Histopathological characteristics of treated skin detected by H&E staining on the third day.

mice = assay: Systemic safety, intraperitoneal injection; format: in vivo, C57BL/6J mice; conditions: for survival rate over 96 h: intraperitoneal injection, 60 mg/kg, n = 8; for hepatorenal toxicity (H&E of liver and kidney): intraperitoneal, 40 mg/kg, 12 h
Experimental: The 10‐week‐old female C57BL/6J mice were randomly divided into three groups (n = 8 for each group). […] Mouse survival was monitored for 96 h. For pathologic analysis, mouse liver and kidneys were obtained by surgery for hematoxylin‐eosin (HE) staining after treatment with 40 mg/kg QLX‐3DV‐1 and QLX‐3DV‐2 for 12 h.

E. faecium 1042 = format: cell-based
Summary of the method: as §1

E. faecium 21 = format: cell-based
Summary of the method: as §1

E.coli 110 = format: cell-based
Summary of the method: as §1

E.coli 208 = format: cell-based
Summary of the method: as §1

E.coli CMCC44102 = format: cell-based
Summary of the method: as §1

K. pneumoniae 7713 = format: cell-based
Summary of the method: as §1

P. aeruginosa 112 = format: cell-based
Summary of the method: as §1

P. aeruginosa 116 = format: cell-based
Summary of the method: as §1

P. aeruginosa 119 = format: cell-based
Summary of the method: as §1

S. aureus 103 = format: cell-based
Summary of the method: as §1

S. aureus 129 = format: cell-based
Summary of the method: as §1

S. aureus ATCC33592 = format: cell-based
Summary of the method: as §1

S. aureus CICC25138 = format: cell-based
Summary of the method: as §1

S. aureus CMCC26003 [3] = format: cell-based
Summary of the method: as §1

[4] = test system: human red blood cells (hRBCs); assay: Hemolysis assay; format: cell-based; conditions: human red blood cells 8% (v/v) in PBS pH 7.4, 1 h, 37°C, absorbance 570 nm; linear interpolation
Experimental: Human red blood cells (hRBCs) were purchased from Xiamen Immocell Biotechnology Co., Ltd. For the hemolysis test, fresh human red blood cells (hRBCs) were washed three times with PBS (35 mM phosphate buffer, 0.15 M NaCl, pH 7.4) by centrifugation for 5 min at 1000 × g and resuspended in PBS. Then, 50 µL peptide solutions (serial twofold dilutions in PBS) were added to 100 µL of hRBC suspension [8% (v/v) in final] in PBS and incubated for 1 h at 37°C. Samples were centrifuged at 1000 × g for 5 min, and hemoglobin release was monitored by measuring the supernatant absorbance at 570 nm in a flat‐bottom 96‐well plate (Servicebio). hRBCs in PBS or 0.1% Triton X‐100 were used as the negative and positive controls, respectively.

S. aureus CMCC26003 [5] = assay: Drug resistance assay, serial passaging; format: cell-based; conditions: sub-MIC (1/2 × MIC), n = 3; for passages after which S. aureus developed resistance: passaged every 24 h, resistance = greater than fourfold MIC increase
Experimental: For comparison, the development of resistance to the clinically relevant antibiotics clindamycin (Macklin) and vancomycin (Macklin) was determined. The evolution of resistance by S. aureus CMCC26003 to antibiotics and the peptide was monitored for 20 days of serial passaging in liquid NB. Cells were passaged every 24 h. Briefly, 1 mL of bacterial suspension (1 × 10^6 CFU/mL) was incubated with antibiotics or peptide solution at half the minimal inhibitory concentration at 37°C, 200 rpm. After each incubation period, a new inoculum of 10^6 cells was prepared for inoculation of the following passage containing fresh medium and increased doses of the antimicrobial agent. During the 20 days of serial passaging, the minimum inhibitory concentration of antibiotics or peptides to each generation of cells was determined. The MIC determination method was as previously described. The development of bacterial resistance was defined as a greater than fourfold increase in MICs compared to the initial MICs.

## CC[C@H](C)[C@H](NC(=O)[C@H](CCCCN)NC(=O)[C@H](Cc1c[nH]c2ccccc12)NC(=O)[C@@H](N)CCCCN)C(=O)N[C@@H](CCCCN)C(=O)N[C@@H](Cc1c[nH]c2ccccc12)C(=O)N1CCC[C@H]1C(=O)N[C@@H](CO)C(=O)N[C@@H](CCCNC(=N)N)C(=O)N[C@@H](Cc1c[nH]c2ccccc12)C(=O)N[C@@H](Cc1ccccc1)C(=O)N[C@@H](CCCNC(=N)N)C(=O)N[C@@H](CCCCN)C(=O)N[C@@H](CC(C)C)C(N)=O [QLX-3DV-1] (H-KWKIKWPSRWFRKL-NH2)
[1]
  MIC against gram-negative strains, as low as: 4 µg/mL (≈ 2.04 µM)
[2]; mouse, in vivo
  Gross pathology findings (Number of mice): 0 / 8
  Histopathological findings, Fibrosis in the dermis (Number of mice): 0 / 8
  Histopathological findings, Lymphohistiocytic infiltration in the dermis (Number of mice): 0 / 8
  Skin irritation, Erythema formation (Number of mice): 0 / 8
[2]
  skin irritation or pathology at 72 h post-treatment: no signs of skin irritation or pathology
mice
  survival rate over 96 h: 100%
  hepatorenal toxicity (H&E of liver and kidney): no significant hepatorenal toxicity

## CC[C@H](C)[C@H](NC(=O)[C@H](CCCCN)NC(=O)[C@H](Cc1c[nH]c2ccccc12)NC(=O)[C@@H](N)CCCCN)C(=O)N[C@@H](CCCCN)C(=O)N[C@@H](Cc1c[nH]c2ccccc12)C(=O)N1CCC[C@H]1C(=O)N[C@H](C(=O)N[C@@H](CCCNC(=N)N)C(=O)N[C@@H](Cc1c[nH]c2ccccc12)C(=O)N[C@@H](Cc1ccccc1)C(=O)N[C@@H](CCCNC(=N)N)C(=O)N[C@@H](CCCCN)C(=O)N[C@@H](CC(C)C)C(N)=O)C(C)C [QLX-3DV-2] (H-KWKIKWPVRWFRKL-NH2)
[1]
  MIC against gram-negative strains, as low as: 4 µg/mL (≈ 2.03 µM)
[2]; mouse, in vivo
  Gross pathology findings (Number of mice): 0 / 8
  Histopathological findings, Fibrosis in the dermis (Number of mice): 0 / 8
  Histopathological findings, Lymphohistiocytic infiltration in the dermis (Number of mice): 0 / 8
  Skin irritation, Edema formation (Number of mice): 0 / 8
  Skin irritation, Erythema formation (Number of mice): 0 / 8
[2]
  skin irritation or pathology at 72 h post-treatment: no signs of skin irritation or pathology
mice
  hepatorenal toxicity (H&E of liver and kidney): no significant hepatorenal toxicity

## CC[C@H](C)[C@H](NC(=O)[C@H](CC(C)C)NC(=O)[C@H](C)NC(=O)[C@H](CCCNC(=N)N)NC(=O)[C@@H](N)CCCNC(=N)N)C(=O)N[C@@H](Cc1ccc(O)cc1)C(=O)N[C@@H](CC(N)=O)C(=O)N[C@@H](CC(C)C)C(=O)N[C@H](C(=O)N[C@@H](CCCCN)C(=O)N[C@@H](CCCCN)C(=O)N[C@@H](Cc1c[nH]c2ccccc12)C(=O)N[C@@H](C)C(=O)N[C@@H](Cc1ccc(O)cc1)C(=O)N[C@@H](CO)C(=O)N[C@@H](Cc1ccc(O)cc1)C(=O)N[C@@H](CO)C(=O)N[C@@H](C)C(=O)N[C@H](C(N)=O)[C@@H](C)O)C(C)C [QLX-3DV-16] (H-RRALIYNLVKKWAYSYSAT-NH2)
E. faecium 1042
  MIC (μg/mL) E. faecium 1042: 16 µg/mL (≈ 6.95 µM)
E. faecium 21
  MIC (μg/mL) E. faecium 21: 8 µg/mL (≈ 3.47 µM)
E.coli 110
  MIC (μg/mL) E.coli 110: 8 µg/mL (≈ 3.47 µM)
E.coli 208
  MIC (μg/mL) E.coli 208: 16 µg/mL (≈ 6.95 µM)
E.coli CMCC44102
  MIC (μg/mL) E.coli CMCC44102: 4 µg/mL (≈ 1.74 µM)
K. pneumoniae 7713
  MIC (μg/mL) K. pneumoniae 7713: 16 µg/mL (≈ 6.95 µM)
P. aeruginosa 112
  MIC (μg/mL) P. aeruginosa 112: 16 µg/mL (≈ 6.95 µM)
P. aeruginosa 116
  MIC (μg/mL) P. aeruginosa 116: 16 µg/mL (≈ 6.95 µM)
P. aeruginosa 119
  MIC (μg/mL) P. aeruginosa 119: 128 µg/mL (≈ 55.6 µM)
S. aureus 103
  MIC (μg/mL) S. aureus 103: 64 µg/mL (≈ 27.8 µM)
S. aureus 129
  MIC (μg/mL) S. aureus 129: 128 µg/mL (≈ 55.6 µM)
S. aureus ATCC33592
  MIC (μg/mL) S. aureus ATCC33592: 128 µg/mL (≈ 55.6 µM)
S. aureus CICC25138
  MIC (μg/mL) S. aureus CICC25138: 128 µg/mL (≈ 55.6 µM)
S. aureus CMCC26003 [3]
  MIC (μg/mL) S. aureus CMCC26003: 4 µg/mL (≈ 1.74 µM)

## CC[C@H](C)[C@H](NC(=O)[C@H](CCSC)NC(=O)[C@H](Cc1c[nH]c2ccccc12)NC(=O)[C@@H](N)CCCCN)C(=O)N[C@@H](CCCCN)C(=O)N[C@@H](Cc1c[nH]c2ccccc12)C(=O)N1CCC[C@H]1C(=O)N[C@@H](CO)C(=O)N[C@@H](CC(N)=O)C(=O)N[C@@H](Cc1c[nH]c2ccccc12)C(=O)N[C@@H](Cc1ccccc1)C(=O)N[C@H](C(=O)N[C@@H](CCSC)C(=O)N[C@@H](CC(C)C)C(N)=O)[C@@H](C)O [QLX-227-1] (H-KWMIKWPSNWFTML-NH2)
E. faecium 1042
  MIC (μg/mL) E. faecium 1042: 32 µg/mL (≈ 17.1 µM)
E. faecium 21
  MIC (μg/mL) E. faecium 21: 16 µg/mL (≈ 8.57 µM)
E.coli 110
  MIC (μg/mL) E.coli 110: 32 µg/mL (≈ 17.1 µM)
E.coli 208
  MIC (μg/mL) E.coli 208: 16 µg/mL (≈ 8.57 µM)
E.coli CMCC44102
  MIC (μg/mL) E.coli CMCC44102: 32 µg/mL (≈ 17.1 µM)
K. pneumoniae 7713
  MIC (μg/mL) K. pneumoniae 7713: 64 µg/mL (≈ 34.3 µM)
S. aureus ATCC33592
  MIC (μg/mL) S. aureus ATCC33592: 64 µg/mL (≈ 34.3 µM)
S. aureus CICC25138
  MIC (μg/mL) S. aureus CICC25138: 64 µg/mL (≈ 34.3 µM)
S. aureus CMCC26003 [3]
  MIC (μg/mL) S. aureus CMCC26003: 32 µg/mL (≈ 17.1 µM)
[4]
  25% hemolytic concentration (HC25): 100.92 µg/mL

## CC(=O)N[C@@H](CC(C)C)C(=O)N[C@@H](CCCCN)C(=O)N[C@@H](CCCNC(=N)N)C(=O)N[C@H](C(=O)N[C@@H](Cc1c[nH]c2ccccc12)C(=O)N[C@@H](CCCCN)C(=O)N[C@@H](CCCNC(=N)N)C(=O)N[C@H](C(=O)N[C@@H](Cc1ccccc1)C(=O)N[C@@H](CCCCN)C(=O)N[C@@H](CC(C)C)C(=O)N[C@@H](CC(C)C)C(=O)N[C@@H](CCCCN)C(=O)N[C@@H](CCCNC(=N)N)C(=O)N[C@@H](Cc1ccc(O)cc1)C(=O)N[C@@H](Cc1c[nH]c2ccccc12)C(=O)N[C@@H](CCCNC(=N)N)C(=O)N[C@@H](CCC(N)=O)C(=O)N[C@@H](CC(C)C)C(=O)N[C@@H](CCCCN)C(=O)N[C@@H](CCCCN)C(=O)N1CCC[C@H]1C(=O)N[C@H](C(=O)N[C@@H](CCCNC(=N)N)C(N)=O)C(C)C)C(C)C)C(C)C [SAAP-148, reference compound] (Ac-LKRVWKRVFKLLKRYWRQLKKPVR-NH2)
[4]
  25% hemolytic concentration (HC25): 26.89 µg/mL
mice
  survival rate over 96 h: 50%

## CCC[C@@H]1C[C@@H](C(=O)N[C@@H]([C@H]2O[C@H](SC)[C@H](O)[C@@H](O)[C@H]2O)[C@H](C)Cl)N(C)C1 [clindamycin]
S. aureus CMCC26003 [5]
  passages after which S. aureus developed resistance: 15 passages

## CN[C@H](CC(C)C)C(=O)N[C@H]1C(=O)N[C@@H](CC(N)=O)C(=O)N[C@H]2C(=O)N[C@H]3C(=O)N[C@H](C(=O)N[C@H](C(=O)O)c4cc(O)cc(O)c4-c4cc3ccc4O)[C@H](O)c3ccc(c(Cl)c3)Oc3cc2cc(c3O[C@@H]2O[C@H](CO)[C@@H](O)[C@H](O)[C@H]2O[C@H]2C[C@](C)(N)[C@H](O)[C@H](C)O2)Oc2ccc(cc2Cl)[C@H]1O [vancomycin]
S. aureus CMCC26003 [5]; 20 passages
  factor of decrease in susceptibility by the 20th passage: 64
S. aureus CMCC26003 [5]
  passages after which S. aureus developed resistance: 18 passages
